In patent US20100273750A1, “SEROTONIN RECEPTOR ANTAGONISTS FOR TREATING ARTHRITIS” (IMPERIAL INNOVATIONS LIMITED, priority 2007, published 2010):
“Also recorded” adds a separate entry of the source. Counter-ions that a name gives are not always drawn.

Columns and labels:
[1] = tested on: TLR4 ligand LPS induced TNF; assay: LPS induced TNF production in primary human macrophages (ELISA); format: cell-based; conditions: 30 minutes preincubation
Description: (§1) Macrophages or RA synovial membrane cell cultures were stimulated with 10 ng/ml chloroform-extracted LPS, 10 ng/ml Pam3, 10 ng/ml Flagellin, 10 ng/ml Malp-2, 20 μg/ml poly IC, 2 μM CpG (human/mouse) or 1 μg/ml R-848 in complete media for 6 h. Supernatants from RA cultures were harvested after 24 hours. All reagents other than LPS were free from LPS contamination as assessed using the limulus amebocyte lysate (LAL) assay from Cambrex (USA).
(§2) Sandwich ELISAs were employed to measure TNF, (Pharmingen, UK). IP-10 (R&D, USA) and IL-1β (Bioscource. USA). Absorbance was read on a spectrophotometric ELISA plate reader (Labsystems Multiscan Biochromic) and analyzed using Ascent software V2.6 (Thermo Labsystems, Cambridge, United Kingdom). All results are expressed as the mean cytokine concentration±SD obtained from triplicate cultures per condition.
(§3) RA synovial membrane cells were isolated from patients undergoing joint replacement surgery as previously described (Foxwell et al., Proc. Natl. Acad. Sci. USA 95, 8211-8215, 1998). All patients gave written informed consent and the study was approved by the local ethics committee. Immediately after isolation, cells were used for mRNA analysis, stained by FACS or cultured at 1×10^5 cells/well in 96-well tissue culture plates (Falcon, UK) in RPMI 1640 containing 10% (v/v) FBS and 100 U/ml penicillin/streptomycin. Primary human synovial fibroblasts were cultured as described previously (Butler et al. Eur. Cytokine Netw. 5:441-8, 1994). Peripheral blood monocytes were isolated and cultured as previously described (Foxwell et al. Proc. Natl. Acad. Sci. USA 95, 8211-8215, 1998). Macrophages were derived from monocytes after differentiation for 4 days with 100 ng/ml M-CSF (PeproTech, UK). The mouse macrophage cell line RAW 264.7 was maintained in Dulbecco's modified Eagle's medium supplemented with 10% fetal bovine serum.
Primary human macrophages, murine RAW 264.7 cells and synovial fibroblasts were incubated with 30 μg/ml mianserine hydrochloride for 30 minutes and then stimulated for 6 hours with TLR ligands (R-848, Pam3, LPS, flagellin, malp-2, poly IC or CpG).

[2] = tested on: TLR3 ligand poly IC induced IP-10; assay: Poly IC induced IP-10 production in human macrophages (ELISA); format: cell-based
Description: as §1, §2, §3
Primary human macrophages were incubated with 5 μg/ml of GBR12909, 5 μg/ml of clotrimazole, 5 μg/ml of Propidium iodide (PI), 30 μg/ml mianserine hydrochloride and 30 μg/ml promazine hydrochloride for 30 minutes and then stimulated for 6 hours with the TLR4 ligand LPS (FIG. 7A), with R848 a TLR7/8 ligand (FIG. 7, Graph B), or with poly IC a TLR3 ligand (FIG. 7C). Supernatants were collected and measured for TNF or IP-10.

[3] = tested on: RA synovial membrane cultures; assay: Spontaneous cytokine release from RA synovial membrane cultures (ELISA); format: cell-based, human
[4] = tested on: TLR7/8 ligand R-848 induced TNF; assay: R-848 induced TNF production in primary human macrophages (ELISA); conditions: 1 μg/ml R-848 for 6 hours
[5] = tested on: rheumatoid synovial membrane cultures; assay: TNF production in rheumatoid synovial membrane cultures stimulated with TLR ligands (ELISA); format: cell-based, human
Description: as §1, §2, §3
To check if these TLRs were functional in synovial membrane cultures, cells were stimulated with the appropriate TLR ligands at the time of seeding the cells (FIG. 5, Graph C). […]

[6] = tested on: RA synovial membrane cultures; assay: Spontaneous cytokine release from RA synovial membrane cultures (ELISA); format: cell-based, human; conditions: 10 μg/ml, 20 μg/ml and 30 μg/ml
Description: as §1, with “hours.” for “hours. All reagents other than LPS were free from LPS contamination as assessed using the limulus amebocyte lysate (LAL) assay from Cambrex (USA).”
as §2, §3
Rheumatoid arthritis synovial membrane cells were cultured for 24 hours in the presence of media alone or media containing 30 μg/ml mianserine hydrochloride. Supernatants were harvested and levels of cytokines (A) TNF (n=16) were measured by ELISA. […] A students paired t-test was used to analyse the data.

[7] = 5 μg/ml, 30 minutes preincubation
[8] = 30 μg/ml, 10 ng/ml LPS for 6 hours
[9] = dose dependant, best inhibition at 100 μM, 24 hours, n=4

CC[N+](C)(CC)CCC[n+]1c(-c2ccccc2)c2cc(N)ccc2c2ccc(N)cc21.[I-].[I-] [Propidium iodide]
inhibition of LPS induced TNF production ([1]; 5 μg/ml, LPS for 6 hours): None of the drugs tested were able to inhibit
inhibition of Poly IC induced IP-10 production ([2]; 5 μg/ml, poly IC for 6 hours): able to inhibit
inhibition of spontaneous TNF production ([3]; 5 μg/ml, 24 hours): did not lead to a significant decrease
inhibition of R-848 induced TNF production [4, 7]: only the serotonin receptor antagonists (mianserine hydrochloride and promazine hydrochloride) were able to suppress

CCOCc1nc2c(N)nc3ccccc3c2n1CC(C)(C)O [R-848, resiquimod]
TNF production increased on stimulation ([5]; 1 μg/ml, TLR7/8 ligand, P<0.0001, n=11): 515%±76

Clc1ccccc1C(c1ccccc1)(c1ccccc1)n1ccnc1 [clotrimazole, Clotrimazole]
inhibition of LPS induced TNF production ([1]; 5 μg/ml, LPS for 6 hours): None of the drugs tested were able to inhibit
inhibition of Poly IC induced IP-10 production ([2]; 5 μg/ml, poly IC for 6 hours): able to inhibit
inhibition of spontaneous TNF production ([3]; 5 μg/ml, 24 hours): did not lead to a significant decrease
inhibition of R-848 induced TNF production [4, 7]: only the serotonin receptor antagonists (mianserine hydrochloride and promazine hydrochloride) were able to suppress

CC(C)Cn1cnc2c(N)nc3ccccc3c21 [imiquimod]
stimulation of cytokine release over spontaneous levels ([5]; 1 μg/ml, TLR7 ligand): unable to stimulate further release of cytokines

CN1C[C@H](CNC(=O)OCc2ccccc2)C[C@@H]2c3cccc4c3c(cn4C)C[C@H]21 [metergoline]
inhibition of spontaneous TNF production ([3]; 10 μg/ml, 24 hours): able to inhibit
inhibition of R-848 induced TNF production ([4]; 10 μg/ml, 30 minutes preincubation): able to inhibit

CSc1ccc2c(c1)C(N1CCN(C)CC1)Cc1ccccc1S2 (stereo not shown) [methiothepin]
inhibition of spontaneous TNF production ([3]; 5 μg/ml, 24 hours): able to inhibit
inhibition of R-848 induced TNF production [4, 7]: able to inhibit

Cc1nccn1CC1CCc2c(c3ccccc3n2C)C1=O (stereo not shown) [ondansetron]
inhibition of LPS induced TNF production [1, 8]: not
inhibition of spontaneous TNF production ([3]; 20 μg/ml, 24 hours): able to inhibit; also recorded: significant inhibition
inhibition of R-848 induced TNF production ([4]; 30 μg/ml, 30 minutes preincubation): significantly inhibits
inhibition of R-848 induced TNF production ([4]; 30 μg/ml, 30 minutes preincubation, listed as Ondansetron): able to inhibit
inhibition of R-848 induced TNF production, dose dependence ([4]; 5, 10 or 20 μg/ml, 30 minutes preincubation): dose dependant inhibition

CN(C)CCCN1c2ccccc2Sc2ccccc21 [promazine hydrochloride]
inhibition of TNF, dose dependence [6]: dose dependently inhibited
inhibition of LPS induced TNF production [1, 8]: None of the drugs tested were able to inhibit
inhibition of Poly IC induced IP-10 production ([2]; 30 μg/ml, 20 μg/ml poly IC for 6 hours, hydrochloride): inhibits TLR3 induced signalling; also recorded: able to inhibit
inhibition of R-848 induced TNF production ([4]; 30 μg/ml, 30 minutes preincubation, hydrochloride): able to suppress
inhibition of R-848 induced TNF production ([4]; 30 μg/ml, 30 minutes preincubation, listed as Promazine hydrochloride, hydrochloride): decreased TNF production

Cc1nc2sccn2c(=O)c1CCN1CCC(=C(c2ccc(F)cc2)c2ccc(F)cc2)CC1 [ritanserin]
inhibition of spontaneous TNF production ([3]; 5 μg/ml, 24 hours): able to inhibit
inhibition of R-848 induced TNF production [4, 7]: able to inhibit

NCCc1c[nH]c2ccc(O)cc12 [serotonin (5-HT), 5-hydroxytryptamine]
inhibition of R-848 induced TNF production (TLR8 signaling) ([4]; 10 or 100 μM, 30 minute preincubation): not inhibited

Chloroquine diphosphate salt
inhibition of spontaneous IL-1 release [3, 9]: inhibited
inhibition of spontaneous TNF release [3, 9]: inhibited

Poly IC
TNF production increased on stimulation ([5]; 20 μg/ml, TLR3 ligand, P=0.0002, n=12): 334%±60

ketanserine tartrate
inhibition of TNF, dose dependence ([3]; 10 μM, 100 μM): dose dependently inhibited
